Consider one compound from patent publication US6787549B2, “Citrate salt of 5,8,14-triazatetracyclo[10.3.1.02,11.04,9]-hexadeca-2(11),3,5,7,9-pentaene and pharmaceutical compositions thereof” (Pfizer Inc., priority 2001, dated 2004).

Structures can show the parent of a compound that is named as a salt.

Usually aqueous solubility stands for how much of the substance goes into solution per volume. By solubility is commonly meant how much of the substance goes into solution per volume. Lower therefore signals a poorly soluble substance.

Type in all cases: physicochemical
A short description of data set [1]: hygroscopicity on exposure to 90% relative humidity in a moisture chamber. The text has this:
(§1) Although in general the acid addition salts of 5,8,14-triazatetracyclo[10.3.1.0^2,11.0^4,9]-hexadeca-2(11),3,5,7,9-pentaene are all crystalline, the majority of those salts are so hygroscopic as to render them poor candidates for pharmaceutical formulation use. The citrate salt exists as a hydrate under ambient conditions, where as noted above, hydrate refers to a water content of between 1 and 5% water by weight in the crystal. […] The citrate salt hydrate Form A has been prepared under different conditions: […]

Data set [2] can be described thus: solid state stability (light, elevated temperature, high humidity challenges). Particulars: in light, elevated temperatures and high humidity challenges.
Source text: as §1

Data set [3] in a line: native pH in aqueous solution.
Data set [4] can be described thus: aqueous solubility.
The nature of data set [5]: water loss of Form A on drying (low humidity, elevated temperature). The procedure: Under low humidity and elevated temperature, Form A will lose water depending on the macroscopic crystalline form. Unmilled samples of Form A may be dried in a 45° C. vacuum oven for several days without significant water loss (<1% water loss). […] Under conditions of low humidity and heat, Form A will dehydrate completely or nearly so to form a distinct pseudomorph which maintains a crystalline lattice, referred to herein as Form B. Form B contains between 0 and 1% water by weight.
Form B of the citrate salt of 5,8,14-triazatetracyclo[10.3.1.0^2,11.0^4,9]-hexadeca-2(11),3,5,7,9-pentaene can also be prepared by drying the citrate salt hydrate of 5,8,14-triazatetracyclo[10.3.1.0^2,11.0^4,9]-hexadeca-2(11),3,5,7,9-pentaene. A number of means for drying the water from the crystal lattice may be employed. Form B may be prepared by reducing the particle size of Form A, via any technique known to those of skill in the art, including jet milling, mechanical milling, etc., and drying the reduce particle size citrate salt Form A under conditions sufficient to remove the water in the lattice. […] Vacuum drying at temperatures in the range of 20 to 60° C. will yield Form B in the course of 30 minutes to 10 hours.

Data set [6] is described as follows: inertness towards common formulation excipients.

For `c1cnc2cc3c(cc2n1)C1CNCC3C1` [Form A, Citrate Salt Hydrate of 5,8,14-Triazatetracyclo[10.3.1.0^2,11.0^4,9]-Hexadeca-2(11),3,5,7,9-Pentaene (Form A)], in data set [1], the “hygroscopicity (in words)” value was “only slightly hygroscopic”. For the same compound, the hygroscopicity entry in data set [1] (at 90% relative humidity) is “approximately 0.6%”; in data set [1] (exposure to 90% relative humidity in a moisture chamber), “approximately 0.6 % wt/wt”. In addition, the solid state stability result in data set [2] is reported as “excellent solid state stability”. Further, the “native pH in aqueous solution” value in data set [3] worked out at 3.7. Further, in data set [4], the “aqueous solubility (in words)” value is recorded as “high aqueous solubility”. For the same compound, in data set [4] (listed as citrate hydrate salt), the aqueous solubility was 110 mg/mL. In addition, the solubility in data set [4] (water) is above 100 mg/mL. Moreover, the “water loss and regain (in words)” value in data set [5] (micronized samples, as humidity and temperature are varied) is “readily lose and regain water”. Also, the “time until water loss is seen” value in data set [5] (particle size reduced, at 45° C.) is listed as “less than 1 hour”. Further, the water loss in data set [5] (unmilled samples, 45° C. vacuum oven for several days) is below 1%. Besides, the “inertness towards common excipients used in pharmaceutical formulation” value in data set [6] was “relative inertness towards common excipients”.
